Data published in paper PMC10518717, “High-Throughput Screening and Proteomic Characterization of Compounds Targeting Myeloid-Derived Suppressor Cells” (Molecular & Cellular Proteomics : MCP, 2023).

Test system: NUP-MDSC
Test: Global proteome expression profiling of compound-treated NUP-MDSC (TMT LC-MS/MS)
Assay type: cell-based, mouse
Settings: for log2 FC cmpd2/cmpd3: cmpd2 versus cmpd3, NUP-MDSC; for normalized reporter intensities R1: replicate R1, compound-treated NUP-MDSC; for normalized reporter intensities R3: replicate R3, compound-treated NUP-MDSC
Experimental: After treatments, medium was removed, cells were washed twice with PBS, and the cell pellets were further subjected to proteomic sample preparation.
The cell pellet was reconstituted in 2% SDS in 50 mM Tris–HCl pH 7.5 and lysed by heating to 95 °C for 10 min. One microliter of 100% TFA was added to each sample to hydrolyze DNA, and the pH was subsequently adjusted to 8.5 with 3 M Tris solution. Disulfide bonds were reduced with 10 mM DTT for 45 min at 37 °C, followed by alkylation of cysteines with 55 mM CAA for 30 min at room temperature. Prior to tryptic digestion, the detergent was removed from lysates by SP3 cleanup on an Agilent BRAVO system (Agilent Technologies), following the protocol first described by Hughes et al. ([34]). Briefly, lysate containing 200 μg of protein was mixed with SP3 beads, and proteins were precipitated onto a 50:50 mixture of Sera-Mag Speed Bead types A and B (Thermo Fisher Scientific) in 58% acetonitrile. Beads were washed three times with 80% ethanol in water and once with acetonitrile. Tryptic digest was performed in 100 μl of digestion buffer (2 mM CaCl2 in 25 mM Hepes, pH 8.5) with a 1:50 enzyme-to-protein ratio. Bead-precipitated proteins were digested at 37 °C overnight. On the next day, the supernatant of each sample was transferred to a new well and vacuum dried.
Dried peptides were reconstituted in water and labeled with the respective TMT10plex-labeling reagent as described previously ([35]) with a protein to tandem mass tag (TMT) reagent ratio of 1:2. Labeled samples were pooled, vacuum dried, and reconstituted in 0.1% formic acid (FA) prior to desalting on SepPAC50 columns (waters corp.). Peptides were fractionated using a Dionex Ultra 3000 HPLC system with a Waters XBridge BEH130 C18 3.5 um 2.1 × 250 mm column as described previously ([36]). Ninety-six fractions were collected and pooled to 48. For the full proteome analysis, one fifth of each fraction was transferred to a new 96-well plate and both plates were vacuum dried. For the phosphopeptide analysis, dried peptides were reconstituted in 55 μl 0.1% TFA in 30% ACN, pooled from 48 to 12 fractions, and mixed with 70 μl priming buffer (0.1% TFA, 100% ACN). Phosphopeptides were enriched from each of the 12 fractions using Fe(III)-IMAC-NTA cartridges on the AssayMAP BRAVO (Agilent Technologies) platform as described previously ([36]). Phosphopeptides were eluted with 60 μl 1% ammonia, vacuum dried, and stored at −20 °C prior to LC-MS/MS analysis.
The Fusion Lumos was operated in data-dependent acquisition and positive ionization mode. Samples were measured employing a MS3 method. In brief, full scan MS1 spectra were recorded in the orbitrap (OT) from 360 to 1560 m/z at 60,000 resolution using an automatic gain control (AGC) target value of 4e5 charges and a maximum injection time (maxIT) of 50 ms. Iontrap-MS2 spectra for peptide identification were acquired using higher energy collision dissociation (HCD) fragmentation with 32% normalized collision energy (NCE), an isolation window of 0.6 m/z, and an AGC target value of 1.2e4 charges. To obtain quantitative information on TMT reporter ions, each peptide precursor was fragmented again as for MS2 analysis followed by synchronous selection of the up to eight most intense peptide fragments in the iontrap ([37]) and further fragmentation via HCD using a NCE of 55%. The MS3 scan was recorded in the OT at 50,000 resolution (scan range 100–1000 m/z, isolation window of 1.2 m/z, AGC of 1e5 charges, maxIT of 86 ms). The cycle time was 1.2 s, and the dynamic exclusion lasted for 50 s.
Peptide, protein, and phosphorylation site identification and quantification were performed with MaxQuant software (v. 1.6.3.3, https://www.maxquant.org/) with standard settings for reporter ion MS3 unless described otherwise ([39]). Isotope impurities of the TMT lot were specified to allow MaxQuant the automated correction of TMT intensities. […]

[1] = protein 0610011F06Rik / Mettl26 (Q9DCS2)
[2] = protein 0610037L13Rik / Czib (Q8BHG2)
[3] = protein Trappc2 (Q8R3W2;Q9CQP2)

| Structure (SMILES) | expression of proteins associated with detoxification by peroxiredoxin and further ROS-reducing proteins (Prdx1, Txnrd1, Srxn1, Cat, Nqo1, Blvrb) (3xEC50, 72 h, relative to compound 3 at 10 μM) | log2 FC cmpd2/cmpd3 [1] | normalized reporter intensities R1 [1] | normalized reporter intensities R3 [1] | log2 FC cmpd2/cmpd3 [2] | normalized reporter intensities R1 [2] | normalized reporter intensities R3 [2] | log2 FC cmpd2/cmpd3 (protein Bap18 (D3Z687;Q9DCT6)) | normalized reporter intensities R1 (protein Bap18 (D3Z687;Q9DCT6)) | normalized reporter intensities R3 (protein Bap18 (D3Z687;Q9DCT6)) | log2 FC cmpd2/cmpd3 [3] | normalized reporter intensities R1 [3] | normalized reporter intensities R3 [3] |
| --- | --- | --- | --- | --- | --- | --- | --- | --- | --- | --- | --- | --- | --- |
| CCOC(=O)c1nnn(-c2nn3nnnc3c3ccccc23)c1C [compound 2] | upregulated | -0.03832 | 20.3044 | 20.1769 | -0.06333 | 20.0663 | 19.9557 | -0.2777 | 16.8475 | 16.9614 | -0.004852 | 18.4905 | 18.3959 |
| c1ccc2c(c1)c(-n1ccnc1)nn1nnnc21 [compound 3] |  |  | 20.3551 | 20.1713 |  | 20.1036 | 20.057 |  | 17.1673 | 17.2868 |  | 18.5332 | 18.3626 |
